Test results published in patent US10787441B2, “Hepatitis C virus inhibitors” (priority 2016, dated 2020).
Like-named read-outs stand apart in the source and are kept apart here.

Columns and labels:
Type in all cases: cell-based, Hepatitis C virus
[1] = test system: HCV genotype 1a H77 strain subgenomic luciferase replicon; test: HCV replicon assay, genotype 1a
Protocol: (§1) The HCV luciferase replicon assay measures the ability of a test compound to inhibit HCV replication in cell culture after 3 days of treatment in a human hepatoma cell line (Huh-7) bearing an HCV replicon containing a luciferase-neomycin phosphotransferase fusion gene. The inhibition of HCV replication was measured by quantification of luciferase protein expression. Briefly, Huh-7 cells containing either the HCV genotype 1a H77 strain or genotype 1b Con1 strain subgenomic luciferase replicon (H1a-luc or Zluc, respectively) were grown in DMEM containing glucose, L-glutamine and sodium pyruvate, 10% fetal bovine serum (FBS), 100 IU/mL penicillin, 100 μg/mL streptomycin, 2 mM GlutaMAX, non-essential amino acids and 0.25 (H1a-luc) or 0.5 (Zluc) mg/mL G418. GlutaMAX was obtained from Invitrogen, Corp.; all other media reagents were obtained from Mediatech, Inc. For dose-response testing, the cells were seeded in 96-well plates at 1×10^4 (H1a-luc) or 7.5×10^3 (Zluc) cells/well in a volume of 50 μL, and incubated at 37° C./5% CO2. Three hours after plating, 50 μL of ten 5-fold serial dilutions of compound were added, and cell cultures were incubated at 37° C./5% CO2 for 72 hours. In all cases, Huh-7 cells lacking the HCV replicon served as negative control. To assess luciferase expression, the media/compound was removed from the plates and ONE-glo Luciferase assay reagent (Promega) was added to each well. The assay plates were shaken for 3 minutes at room temperature and luciferase activity for each well was measured with a 1 sec read time on the Victor^3V multilabel counter using a 700 nm cut-off filter (Perkin Elmer). EC50 values were calculated from dose response curves from the resulting best-fit equations determined by Microsoft Excel and XLfit 4.1 software.

[2] = test system: HCV 1aY93H mutant replicon; test: HCV replicon assay, genotype 1a Y93H mutant
Protocol: General procedure: The luciferase replicon transient transfection assay measures the ability of a test compound to inhibit the replication of a transiently-transfected HCV luciferase-bearing wild-type or mutant replicon in cured human hepatoma cells (Huh7.5). The inhibition of HCV replication was measured by quantification of luciferase protein expression. This assay has been validated using a panel of genotype 1a and 1b replicons bearing mutations known to be associated with resistance to BMS-790052. Briefly, subconfluent Huh7.5 cells were electroporated with 10 μg of wild-type or mutant luciferase-bearing HCV replicon RNA. The cells were then seeded in 96-well opaque white plates at 3×10^4 cells/well in 150 μL/well and incubated for 4 hrs at 37° C./5% CO2. Ten 1:5 serial dilutions of each test compound were made in media (DMEM containing glucose, L-glutamine and sodium pyruvate, 10% fetal bovine serum, 100 IU/mL penicillin, 100 μg/mL streptomycin, 2 mM GlutaMAX, and 1×MEM non-essential amino acids (Mediatech, Inc. and Invitrogen Corp.)) at concentrations that were 4× higher than the final concentrations to be tested and 50 μL/well was added to the transfected cells. Untreated, mock-transfected cells served as a negative control of luciferase expression. The plates were incubated at 37° C./5% CO2 for 4 days whereupon the media was removed and 50 μL of ONE-glo luciferase substrate (Promega) was added to each well. The plates were agitated on a rotating platform at room temperature for 3 min and read in a Victor^3V microplate reader (Perkin-Elmer) using a 700 nm cut-off filter with a 1 sec read time. EC50 values were calculated from dose response curves from the resulting best-fit equations determined by Microsoft Excel and XLfit 4.1 software.

HCV 2b = test: HCV replicon assay, genotype 2b
[3] = test system: HCV genotype 3a NS5A within the 1b-replicon; test: HCV replicon assay, genotype 3a (NS5A intergenotypic stable cell line)
Text: The nucleotide sequences of the NS5A region of genotype 2a (GenBank Accession # AB047639), genotype 3a (GenBank Accession # D17763), and genotype 4a (GenBank Accession # DQ418788) were synthesized by an outside vendor. The NS5A region of each of these genotypes included the first 11 amino acids of the protease recognition sequence of genotype 1b, as well as the last 10 amino acids of genotype 1b. The NS5A gene cassettes were excised with site specific restriction endonucleases and ligated into a ZS11-luciferase genotype 1b backbone (backbone contains the genotype 1b NS3 protease, NS4a, NS4b, and NS5b coding regions) with similarly cut restriction enzyme sites. Thus, the newly constructed plasmid contains a genotype 2a-, 3a- or 4a-specific NS5A gene within the 1b-replicon.
These new intergenotypic plasmids were used to establish stable cell lines. RNA was generated from the NS5A intergenotypic plasmids and used in conjunction with a lipofectin reagent to transfect a cured Huh7 cell line. Transfected cells were selected for with G418. After selection has occurred the stable cell lines were propagated, tested for luciferase activity, and RT-PCR with genotype specific primers (either 1a, 2a, 3a, or 4a). Stable cell lines containing the intergenotypic replicon were then fully sequenced and analyzed for proper expression of NS3, NS5A and NS5B proteins.
Drug titration analysis was performed using the luciferase replicon assay described herein.
as §1

[4] = Hepatitis C virus, read-out: 1a IC50 (nM), HCV genotype 1a
[5] = Hepatitis C virus, read-out: 1aY93H IC50 (nM), HCV genotype 1a, Y93H mutant
[6] = read-out: 2b IC50, HCV genotype 2b
[7] = Hepatitis C virus, read-out: 3a IC50 (nM), HCV genotype 3a
[8] = read-out: 1a IC50, HCV genotype 1a
[9] = read-out: 1aY93H IC50, HCV genotype 1a, Y93H mutant
[10] = read-out: 3a IC50, HCV genotype 3a
[11] = Hepatitis C virus, read-out: 2b IC50 (nM), HCV genotype 2b

## CCC1c2ccc(-c3cnc([C@@H]4CCCN4C(=O)[C@@H](NC(=O)OC)C(C)C)[nH]3)cc2Oc2ccc3cc(-c4cnc([C@@H]5CCCN5C(=O)[C@@H](NC(=O)OC)C(C)C)[nH]4)ccc3c21 (single isomer, unassigned) [Compound 5]
[1]; [4]
  IC50: 0.005 nM
[2]; [5]
  IC50: 11.7 nM
HCV 2b; [6]
  IC50: 0.784 nM
[3]; [7]
  IC50: 1.08 nM

## CCC1c2ccc(-c3cnc([C@@H]4CCCN4C(=O)[C@@H](NC(=O)OC)C(C)C)[nH]3)cc2Oc2ccc3cc(-c4cnc([C@@H]5CCCN5C(=O)[C@@H](NC(=O)OC)C(C)C)[nH]4)ccc3c21 (single isomer, unassigned) [Compound 6]
[1]; [8]
  IC50: 0.0027 nM
[2]; [9]
  IC50: 15 nM
HCV 2b; [6]
  IC50: 12.8 nM
[3]; [10]
  IC50: 1.72 nM

## CCC1c2ccc(-c3cnc([C@@H]4CCCN4C(=O)[C@@H](NC(=O)OC)C4CCOCC4)[nH]3)cc2Oc2ccc3cc(-c4cnc([C@@H]5CCCN5C(=O)[C@@H](NC(=O)OC)C5CCOCC5)[nH]4)ccc3c21 (single isomer, unassigned) [Compound 14]
[1]; [8]
  IC50: 0.0042 nM
[2]; [9]
  IC50: 0.221 nM
[3]; [10]
  IC50: 0.034 nM

## O=c1c2ccc(-c3cnc([C@@H]4CC(F)CN4)[nH]3)cc2oc2ccc3cc(-c4cnc([C@@H]5C[C@@H](F)CN5)[nH]4)ccc3c12 (stereo in doubt) [Compound 18, 3-{2-[(2S,4R)-4-fluoropyrrolidin-2-yl]-1H-imidazol-5-yl}-9-{2-[(2S,4S)-4-fluoropyrrolidin-2-yl]-1H-imidazol-5-yl}-12H-benzo[a]xanthen-12-one]
[1]; [4]
  IC50: 208 nM
[2]; [5]
  IC50: 147 nM

## O=c1c2cc(-c3cnc([C@@H]4CC(F)CN4)[nH]3)ccc2oc2c(F)c3ccc(-c4cnc([C@@H]5CC(F)CN5)[nH]4)cc3cc12 (stereo in doubt) [Compound 19, 6-fluoro-2,9-bis{2-[(2S,4S)-4-fluoropyrrolidin-2-yl]-1H-imidazol-5-yl}-12H-benzo[b]xanthen-12-one]
[1]; [4]
  IC50: 745 nM
[2]; [5]
  IC50: 1390 nM

## CC(C)(C)NC(=O)N1CC(F)C[C@H]1c1ncc(-c2ccc3c(ccc4oc5cc(-c6cnc([C@@H]7C[C@@H](F)CN7C(=O)NC(C)(C)C)[nH]6)ccc5c(=O)c43)c2)[nH]1 (stereo in doubt) [Compound 21, (2S,4R,2′S,4′S)-2,2′-[(12-oxo-12H-benzo[a]xanthene-3,9-diyl)bis(1H-imidazole-5,2-diyl)]bis(N-tert-butyl-4-fluoropyrrolidine-1-carboxamide)]
[1]; [4]
  IC50: 63.1 nM
[2]; [5]
  IC50: 96.2 nM
HCV 2b; [11]
  IC50: 505 nM

## CC(C)(C)OC(=O)N1CC(F)C[C@H]1c1ncc(-c2ccc3c(ccc4oc5cc(-c6cnc([C@@H]7C[C@@H](F)CN7C(=O)OC(C)(C)C)[nH]6)ccc5c(=O)c43)c2)[nH]1 (stereo in doubt) [Compound 22, di-tert-butyl (2S,4R,2′S,4′S)-2,2′-[(12-oxo-12H-benzo[a]xanthene-3,9-diyl)bis(1H-imidazole-5,2-diyl)]bis(4-fluoropyrrolidine-1-carboxylate)]
[1]; [4]
  IC50: 291 nM
[2]; [5]
  IC50: 717 nM

## CC(C)(C)NC(=O)N1CC(F)C[C@H]1c1ncc(-c2ccc3c(F)c4oc5ccc(-c6cnc([C@@H]7CC(F)CN7C(=O)NC(C)(C)C)[nH]6)cc5c(=O)c4cc3c2)[nH]1 (stereo in doubt) [Compound 23, (2S,4S,2′S,4′S)-2,2′-[(6-fluoro-12-oxo-12H-benzo[b]xanthene-2,9-diyl)bis(1H-imidazole-5,2-diyl)]bis(N-tert-butyl-4-fluoropyrrolidine-1-carboxamide)]
[1]; [4]
  IC50: 53.5 nM
[2]; [5]
  IC50: 436 nM
HCV 2b; [11]
  IC50: ≥ 1000 nM

## CC(C)(C)OC(=O)N1CC(F)C[C@H]1c1ncc(-c2ccc3c(F)c4oc5ccc(-c6cnc([C@@H]7CC(F)CN7C(=O)OC(C)(C)C)[nH]6)cc5c(=O)c4cc3c2)[nH]1 (stereo in doubt) [Compound 24, di-tert-butyl (2S,4S,2′S,4′S)-2,2′-[(6-fluoro-12-oxo-12H-benzo[b]xanthene-2,9-diyl)bis(1H-imidazole-5,2-diyl)]bis(4-fluoropyrrolidine-1-carboxylate)]
[1]; [4]
  IC50: 425 nM
[2]; [5]
  IC50: 2460 nM

## COC(=O)N[C@H](C(=O)N1CCC[C@@H]1c1ncc(-c2ccc3oc4c(ccc5cc(-c6cnc([C@H]7CCCN7C(=O)[C@H](NC(=O)OC)C(C)C)[nH]6)ccc54)c(=O)c3c2)[nH]1)C(C)C [Compound 1, methyl [(1R)-1-({(2R)-2-[5-(9-{2-[(2R)-1-{(2S)-2-[(methoxycarbonyl)amino]-3-methylbutanoyl}pyrrolidin-2-yl]-1H-imidazol-5-yl}-7-oxo-7H-benzo[c]xanthen-3-yl)-1H-imidazol-2-yl]pyrrolidin-1-yl}carbonyl)-2-methylpropyl]carbamate]
[1]; [4]
  IC50: 0.0204 nM
[2]; [5]
  IC50: 66 nM

## COC(=O)N[C@H](C(=O)N1CCC[C@H]1c1ncc(-c2ccc3c(c2)C(C)c2ccc4cc(-c5cnc([C@@H]6CCCN6C(=O)[C@@H](NC(=O)OC)C(C)C)[nH]5)ccc4c2O3)[nH]1)C(C)C (stereo partly drawn) [Compound 4, methyl [(1S)-1-({(2S)-2-[5-(3-{2-[(2S)-1-{(2S)-2-[(methoxycarbonyl)amino]-3-methylbutanoyl}pyrrolidin-2-yl]-1H-imidazol-5-yl}-7-methyl-7H-benzo[c]xanthen-9-yl)-1H-imidazol-2-yl]pyrrolidin-1-yl}carbonyl)-2-methylpropyl]carbamate]
[1]; [4]
  IC50: 0.0057 nM
[2]; [5]
  IC50: 48.8 nM

## COC(=O)N[C@H](C(=O)N1CCC[C@H]1c1ncc(-c2ccc3c(c2)Oc2ccc4cc(-c5cnc([C@@H]6CCCN6C(=O)[C@@H](NC(=O)OC)C(C)C)[nH]5)ccc4c2C3(C)C)[nH]1)C(C)C [Compound 7, methyl [(1S)-1-({(2S)-2-[5-(3-{2-[(2S)-1-{(2S)-2-[(methoxycarbonyl)amino]-3-methylbutanoyl}pyrrolidin-2-yl]-1H-imidazol-5-yl}-12,12-dimethyl-12H-benzo[a]xanthen-9-yl)-1H-imidazol-2-yl]pyrrolidin-1-yl}carbonyl)-2-methylpropyl]carbamate]
[1]; [4]
  IC50: 0.0029 nM
[2]; [5]
  IC50: 17.8 nM
HCV 2b; [11]
  IC50: 11 nM

## CCC1(CC)c2ccc(-c3cnc([C@@H]4CCCN4C(=O)[C@H](NC(=O)OC)C(C)C)[nH]3)cc2Oc2ccc3cc(-c4cnc([C@@H]5CCCN5C(=O)[C@@H](NC(=O)OC)C(C)C)[nH]4)ccc3c21 [Compound 8, methyl [(1R)-1-({(2S)-2-[5-(12,12-diethyl-3-{2-[(2S)-1-{(2S)-2-[(methoxycarbonyl)amino]-3-methylbutanoyl}pyrrolidin-2-yl]-1H-imidazol-5-yl}-12H-benzo[a]xanthen-9-yl)-1H-imidazol-2-yl]pyrrolidin-1-yl}carbonyl)-2-methylpropyl]carbamate]
[1]; [4]
  IC50: 0.002 nM
[2]; [5]
  IC50: 4.1 nM
HCV 2b; [11]
  IC50: 3.33 nM
[3]; [7]
  IC50: 0.581 nM
